In patent US5952504A, “4-amino-3-acylnaphthyridine derivatives” (Yungjin Pharmaceutical Company, Ltd., priority 1995, dated 1999):
Like-named read-outs stand apart in the source and are kept apart here.

Legend:
[1] = biological target: T1, H^+ /K^+ ATPase (Oryctolagus cuniculus, UniProt P27112); assay: Inhibition of H^+ /K^+ ATPase (rabbit gastric mucosa vesicles); format: biochemical
T1 construct: from tissue; host or cells: rabbit gastric mucosa, membrane vesicles (differential and Ficoll density gradient centrifugation)
Method: 1. Inhibition of H^+ /K^+ ATPase Inhibition of H^+ /K^+ ATPase, a proton carrying enzyme, was measured by following the procedure of Saccomani et al. [Biochim. Biophy. Acta., 465, 311-330 (1977)]. Thus, a homogenate of the gastric mucose membrane of rabbit was used to prepare vesicles containing H^+ /K^+ ATPase by employing differential centrifugation and discontinuous density gradient centrifugation in Ficoll. […] Omeprazole was used as a control. A solution containing 2 mM of magnesium chloride, 40 mM of imidazole buffer (pH 7.4), 10 mM of potassium chloride and […] of ATP was added to the mixture. The resulting mixture was incubated at 37° C. for 15 minutes and the reaction was terminated by adding 1 ml of ice-cold 22% solution of trichloroacetic acid. Enzyme activity was calculated by measuring the separated inorganic phosphate by following the method of Fiske and Subbarow [J. Biol. Chem., 66, 375-440 (1925)].

[2] = tested on: ethanol-induced lesions; assay: Inhibition of ethanol-induced lesions; format: in vivo, male Sprague-Dawley rats; settings: Rattus norvegicus; oral, 30 min before absolute ethanol (5 ml/kg); read-out: Anti-ulcer activity (ED50), Ethanol
Method: 1) Inhibition of ethanol-induced lesions Inhibitory activity of the inventive compound on the ethanol-induced lesions was measured by using male Sprague-Dawley rats weighing 180-200 g. Thus, rats were starved for 24 hours, and the inventive compounds shown in Table 3 or omeprazole as a positive control was orally administered. Thirty minutes later, absolute ethanol (5 ml/kg) was orally administered. 1.5 hours later, the stomach was removed, and the degree of the wound of the stomach was measured.

[3] = tested on: mepirizole-induced ulcer; assay: Inhibition of mepirizole-induced ulcer; format: in vivo, male Sprague-Dawley rats; settings: Rattus norvegicus; oral, 30 min before mepirizole (250 mg/kg); duodenum; read-out: Anti-ulcer activity (ED50), Mepirizole
Method: 2) Inhibition of mepirizole-induced ulcer Inhibitory activity of the inventive compound on the mepirizole-induced ulcer was measured by using male Spraque-Dawley rats weighing 200-230 g. Thus, rats were not starved, and the inventive compounds shown in Table 3 or omeprazole as a positive control was orally administered. Thirty minutes later, mepirizole suspended in 1% CMC (250 mg/kg) was orally administered. […], the duodena were removed. The degree of the ulcer thereof was measured.

[4] = tested on: indomethacin-induced lesions; assay: Inhibition of indomethacin-induced lesions; format: in vivo, male Sprague-Dawley rats; settings: Rattus norvegicus; oral, before indomethacin 35 mg/kg s.c.; read-out: Anti-ulcer activity (ED50), Indomethacin
Method: 3) Inhibition of indomethacin-induced lesions Inhibitory activities of the inventive compounds on the indomethacin-induced lesions were measured by using male Sprague-Dawley rats. Thus, rats were starved for 48 hours and prohibited from being supplied with water for 2 hours, and 35 mg/kg of indomethacin (Sigma Co.) as a causative of gastric lesions was subcutaneously administered. Before indomethacin treatment, the inventive compounds shown in Table 3 or omeprazole as a positive control was orally administered, and the inhibitions of lesions by the action of the test compounds were observed.

[5] = tested on: stress-induced ulcer; assay: Inhibition of stress-induced ulcer; format: in vivo, male Sprague-Dawley rats; settings: Rattus norvegicus; oral, water immersion stress; read-out: Anti-ulcer activity (ED50), Stress
Method: 4) Inhibition of stress-induced ulcer Inhibitory activity of the inventive compound on the stress-induced ulcer was evaluated by using male Spraque-Dawley rats. Thus, rats were starved for 24 hours prior to carrying out the experiment. Stress is an important factor for causing gastric ulcer, and was applied to rats by immersing them in water. Then, the inventive compounds shown in Table 3 or omeprazole as a control was orally administered, and the inhibitions of ulcer by the action of the test compounds were observed.

[6] = tested on: acetic acid-induced ulcer; assay: Inhibition of acetic acid-induced ulcer; format: in vivo, male Sprague-Dawley rats; settings: oral, 10 days
Method: 5) Inhibition of acetic acid-induced ulcer Inhibitory activity of the inventive compound on the acetic acid-induced ulcer was evaluated by using male Sprague-Dawley rats. Thus, rats were starved for 5 hours prior to carrying out the experiment. 20 Microliter of 30% acetic acid was injected into the submucosal layer of the stomach using a microsyringe to induce a circular ulcer on the stomach. […] The percentages of the healing of the ulcer were calculated by comparing them with that of reference group.

[7] = tested on: gastric secretion; assay: Inhibition of gastric secretion (Shay ligation); format: in vivo, male Sprague-Dawley rats; settings: 4 hours, pylorus-ligated rats; for ED50: Rattus norvegicus, into duodenum, read-out: Gastric juice Secretion Inhibition (ED50); for Gastric juice Secretion Inhibition (% at 12.5 mg/kg): 12.5 mg/kg into duodenum
Method: 2. Inhibition of Gastric Secretion
Inhibition of gastric secretion was measured by following the procedure of Shay ligation (Gastroenterology, 1954, 26, 903). Thus, male Sprague-Dawleyrats weighing 180-200 g were starved for 24 hours and their pylorus were ligated. Then, the inventive compounds shown in Table 2 or omeprazole as a positive control was administered into duodenum. Four hours later, the stomach was removed, and the acidity and amount of gastric juice were measured. By comparing the measured values with the acidity and amount of the gastric juice of the stomach of the reference group to which no test compound was administered, the inhibition of gastric secretion was calculated.

[8] = Acute toxicity (oral, 14 days); format: in vivo; settings: mouse, in vivo, po; for mortality at 336 h: read-out: Lethality (%); for LD50 at 336 h: 14 days
Method: (§1) A median lethal dose (LD50) an index of acute toxicity was measured and is Table 4

[9] = tested on: ICR mice; assay: Acute toxicity (oral, 14 days); format: in vivo; settings: 6 animals
Method: as §1

[10] = preincubation 30 min, 37° C., pH 7.4

T1 sequence (P27112 2-1035 limits assumed): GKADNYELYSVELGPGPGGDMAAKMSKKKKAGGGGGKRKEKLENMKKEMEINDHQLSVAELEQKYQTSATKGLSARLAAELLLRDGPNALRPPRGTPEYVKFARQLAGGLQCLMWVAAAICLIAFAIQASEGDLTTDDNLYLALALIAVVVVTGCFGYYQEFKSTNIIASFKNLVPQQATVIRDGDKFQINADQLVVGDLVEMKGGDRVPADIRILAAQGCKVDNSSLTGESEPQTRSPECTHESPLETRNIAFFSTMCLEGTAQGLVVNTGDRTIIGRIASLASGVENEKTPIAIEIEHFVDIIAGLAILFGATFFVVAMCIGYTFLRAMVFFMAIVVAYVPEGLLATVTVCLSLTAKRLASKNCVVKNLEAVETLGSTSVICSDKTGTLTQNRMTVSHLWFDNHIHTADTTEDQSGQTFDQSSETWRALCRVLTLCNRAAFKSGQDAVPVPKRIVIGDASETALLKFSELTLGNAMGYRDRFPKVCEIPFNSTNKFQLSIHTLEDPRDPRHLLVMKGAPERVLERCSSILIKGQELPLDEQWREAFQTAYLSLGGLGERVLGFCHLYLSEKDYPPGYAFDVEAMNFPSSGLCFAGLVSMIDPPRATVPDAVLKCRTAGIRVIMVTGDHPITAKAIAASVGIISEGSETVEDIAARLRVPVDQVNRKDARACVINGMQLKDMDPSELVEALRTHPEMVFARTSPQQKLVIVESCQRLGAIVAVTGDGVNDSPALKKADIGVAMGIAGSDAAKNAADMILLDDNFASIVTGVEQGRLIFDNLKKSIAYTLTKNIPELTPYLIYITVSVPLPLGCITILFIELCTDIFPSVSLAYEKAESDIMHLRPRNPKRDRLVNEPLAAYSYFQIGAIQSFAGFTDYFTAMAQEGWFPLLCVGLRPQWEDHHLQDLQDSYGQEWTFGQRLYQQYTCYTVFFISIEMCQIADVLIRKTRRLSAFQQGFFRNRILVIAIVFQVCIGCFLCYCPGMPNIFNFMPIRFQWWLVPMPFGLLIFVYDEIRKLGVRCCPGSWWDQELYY
T1 sequence (P18597 whole entry partner): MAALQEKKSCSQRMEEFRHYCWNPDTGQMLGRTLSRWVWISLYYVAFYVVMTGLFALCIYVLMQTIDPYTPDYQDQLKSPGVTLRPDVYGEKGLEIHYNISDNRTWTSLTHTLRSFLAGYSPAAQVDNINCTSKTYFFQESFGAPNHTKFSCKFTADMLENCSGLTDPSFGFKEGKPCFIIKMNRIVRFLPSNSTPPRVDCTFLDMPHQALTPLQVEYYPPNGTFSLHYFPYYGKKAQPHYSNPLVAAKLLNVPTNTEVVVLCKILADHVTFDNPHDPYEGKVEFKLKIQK

Q: Which IC50 [1, 10] does the source give for `CCOC(=O)c1cnc2c(N3CCOCC3)nccc2c1Nc1cccc(C(F)(F)F)c1` [Example 55] here?
A: 16.8 µM

Q: For `CCCC(=O)c1cnc2c(OC(C)C)nccc2c1Nc1ccccc1SC` [Example 44], which IC50 [1, 10] is on record?
A: 11.4 µM

Q: With `COc1ccc2[nH]c([S+]([O-])Cc3ncc(C)c(OC)c3C)nc2c1` (stereo not drawn) [Omeprazole, reference compound] as the compound, how does the IC50 ([1]; control) read?
A: 57.5 µM

Q: And the ED50 [2]?
A: 17.5 mg/kg

Q: What about the ED50 [3] of the same compound?
A: 2.8 mg/kg

Q: And the ED50 [4]?
A: 1.2 mg/kg

Q: What about the ED50 [5] of the same compound?
A: 4.4 mg/kg

Q: What about the “Acetic acid: Percentage of healing in 30 mg/kg” value [6] of the same compound?
A: 27.1%

Q: Which IC50 [1, 10] does the source give for `CCCC(=O)c1cnc2c(OC(C)C)nccc2c1Nc1ccccc1C` [Example 43, 3-Butyryl-8-isopropoxy-4-(2-methylphenylamino)-1,7-naphthyridine] here?
A: 18.2 µM

Q: What does the source list for `CCCC(=O)c1cnc2c(OC)nccc2c1N[C@H](C)c1ccccc1` [Example 21]?
A: IC50 [1, 10]: 45.7 µM; ED50 [7]: 11.7 mg/kg; ED50 [2]: 11.2 mg/kg; ED50 [3]: 64.1 mg/kg; ED50 [4]: 2.1 mg/kg; ED50 [5]: 13 mg/kg; Acetic acid: Percentage of healing in 30 mg/kg [6]: 22.0%; mortality at 336 h ([8]; 40 mg/kg, female, 40 mg/kg oral): 0%; mortality at 336 h ([8]; 40 mg/kg, male, 40 mg/kg oral): 0%; mortality at 336 h ([8]; 200 mg/kg, female, 200 mg/kg oral): 0%; mortality at 336 h ([8]; 200 mg/kg, male, 200 mg/kg oral): 0%; mortality at 336 h ([8]; 1000 mg/kg, female, 1000 mg/kg oral): 17%; mortality at 336 h ([8]; 1000 mg/kg, male, 1000 mg/kg oral): 0%; mortality at 336 h ([8]; 5000 mg/kg, female, 5000 mg/kg oral): 100%; mortality at 336 h ([8]; 5000 mg/kg, male, 5000 mg/kg oral): 100%; LD50 at 336 h ([8]; female): 1130 mg/kg; LD50 at 336 h ([8]; male): 2340 mg/kg; No. of Death ([9]; female, 40 mg/kg oral): 0; No. of Death ([9]; female, 200 mg/kg oral): 0; No. of Death ([9]; female, 1000 mg/kg oral): 1; No. of Death ([9]; female, 5000 mg/kg oral): 6; No. of Death ([9]; male, 40 mg/kg oral): 0; No. of Death ([9]; male, 200 mg/kg oral): 0; No. of Death ([9]; male, 1000 mg/kg oral): 0; No. of Death ([9]; male, 5000 mg/kg oral): 6

Q: For `CCOC(=O)c1cnc2c(N3CCOCC3)nccc2c1Nc1ccccc1OC` [Example 49], which “Gastric juice Secretion Inhibition (% at 12.5 mg/kg)” value [7] is on record?
A: 35.8%

Q: With `CCCC(=O)c1cnc2c(OC)nccc2c1Nc1ccc2c(c1)CCC2` [Example 31] as the compound, how does the IC50 [1, 10] read?
A: 14.9 µM

Q: With `CCOC(=O)c1cnc2c(OC)nccc2c1Nc1ccc(F)cc1` [Example 11] as the compound, how does the IC50 [1, 10] read?
A: 31.6 µM

Q: For `CCCC(=O)c1cnc2c(OCC)nccc2c1NC1CCCc2ccccc21` (stereo not drawn) [Example 42], which IC50 [1, 10] is on record?
A: 14.7 µM

Q: Which results are given for `CCOC(=O)c1cnc2c(OC)nccc2c1N[C@@H](C)c1ccccc1` [Example 15]?
A: ED50 [7]: 30 mg/kg; ED50 [2]: 12.8 mg/kg; ED50 [4]: 2.1 mg/kg

Q: Which IC50 [1, 10] does the source give for `CCCC(=O)c1cnc2c(OC)nccc2c1NC1CCCc2ccccc21` (stereo not drawn) [Example 32] here?
A: 75 µM

Q: What does the source list for `CCCC(=O)c1cnc2c(OCC)nccc2c1N[C@H](C)c1ccccc1` [Example 37]?
A: IC50 [1, 10]: 28 µM; ED50 [7]: 13.3 mg/kg

Q: Which IC50 [1, 10] does the source give for `CCCC(=O)c1cnc2c(OC)nccc2c1NCCCCc1ccccc1` [Example 29] here?
A: 26.9 µM

Q: Which IC50 [1, 10] does the source give for `CCCC(=O)c1cnc2c(OCC)nccc2c1NCCCCc1ccccc1` [Example 41] here?
A: 12.6 µM

Q: For `CCCCc1ccc(Nc2c(C(=O)OCC)cnc3c(OC)nccc23)cc1` [Example 13], which IC50 [1, 10] is on record?
A: 25.1 µM

Q: And the “Gastric juice Secretion Inhibition (% at 12.5 mg/kg)” value [7]?
A: 42.1%

Q: With `CCCCc1ccc(Nc2c(C(=O)CCC)cnc3c(OCC)nccc23)cc1` [Example 35] as the compound, how does the IC50 [1, 10] read?
A: 20.5 µM

Q: Which IC50 [1, 10] does the source give for `CCCC(=O)c1cnc2c(OC(C)C)nccc2c1Nc1ccccc1C(F)(F)F` [Example 45] here?
A: 39.3 µM

Q: Which results are given for `CCCC(=O)c1cnc2c(OCC)nccc2c1Nc1ccccc1SC` [Example 34]?
A: IC50 [1, 10]: 23.4 µM; ED50 [7]: 30 mg/kg; ED50 [2]: 30.6 mg/kg; ED50 [4]: 4.9 mg/kg
